Values after ≈ are worked out from the molar mass of the structure shown. Where two headings read alike, the source gives them in different places.
Tests used:
Mtb H37Rv = test: Microplate Alamar Blue assay, MIC; format: cell-based, Mycobacterium tuberculosis; conditions: for MIC: Mycobacterium tuberculosis, H37RV
M. smegmatis = test: Microdilution broth resazurin assay, MIC; format: cell-based, Mycolicibacterium smegmatis
M. kansasii = test: Microplate Alamar Blue assay, MIC; format: cell-based, Mycobacterium kansasii; conditions: for MIC: Mycobacterium kansasii, read-out: Antimycobacterial Activity MIC M. kans.
M. avium = test: Microdilution broth resazurin assay, MIC; format: cell-based, Mycobacterium avium
Mtb H37Ra = test: Microdilution broth resazurin assay, MIC; format: cell-based, Mycobacterium tuberculosis
M. aurum = test: Microdilution broth resazurin assay, MIC; format: cell-based, Mycolicibacterium aurum
[1] = Microplate Alamar Blue assay, read-out: Antimycobacterial Activity MIC Mtb H37Rv
[2] = Mycolicibacterium smegmatis, read-out: Antimycobacterial Activity MIC M. smeg.
[3] = Mycobacterium avium, read-out: Antimycobacterial Activity MIC M. avium
[4] = Mycobacterium tuberculosis, H37RA; read-out: Antimycobacterial Activity MIC Mtb H37Ra
[5] = Mycolicibacterium aurum, read-out: Antimycobacterial Activity MIC M. aurum
[6] = Table S5 matching pairs series A and B
[7] = read-out: Antimycobacterial Activity MIC Mtb H37Rv, Table S5 matching pairs series A and B
[8] = Mycobacterium tuberculosis, H37RA, read-out: Antimycobacterial Activity MIC Mtb H37Ra

Compound: Cc1nc2cc(Cl)ccc2c(=O)n1/N=C/c1cccc(Br)c1 [Compound 53, (E)-7-Chloro-3-((3-bromobenzylidene)amino)-2-methylquinazolin-4(3H)-one]
- MIC (Mtb H37Rv; [1]): > 25 µg/mL
- MIC (M. smegmatis; [2]): ≥ 31.2 µg/mL
- MIC (M. kansasii): > 25 µg/mL
- MIC (M. avium; [3]): ≥ 31.2 µg/mL
- MIC (Mtb H37Ra; [4]): ≥ 31.2 µg/mL
- MIC (M. aurum; [5]): ≥ 31.2 µg/mL

Compound: COc1ccc(/C=N/n2c(C)nc3cc(Cl)ccc3c2=O)cc1 [Compound 40]
- MIC (Mtb H37Rv; [1]): > 50 µg/mL
- MIC (M. smegmatis; [2]): ≥ 15.6 µg/mL
- MIC (M. kansasii): > 50 µg/mL
- MIC (M. avium; [3]): ≥ 15.6 µg/mL
- MIC (Mtb H37Ra; [4]): ≥ 15.6 µg/mL
- MIC (M. aurum; [5]): ≥ 15.6 µg/mL

Compound: Cc1nc2ccccc2c(=O)n1Cc1ccc(C(F)(F)F)cc1 [Compound 7]
- Antimycobacterial Activity MIC Mtb H37Rv (Mtb H37Rv; Microplate Alamar Blue assay): >100 µg/mL
- Antimycobacterial Activity MIC M. smeg. (M. smegmatis): 250 µg/mL
- Antimycobacterial Activity MIC M. smeg. (M. smegmatis; [6]): 250 µg/mL
- Antimycobacterial Activity MIC M. kans. (M. kansasii): >100 µg/mL
- Antimycobacterial Activity MIC M. avium (M. avium): 125 µg/mL
- Antimycobacterial Activity MIC M. avium (M. avium; [6]): 125 µg/mL
- Antimycobacterial Activity MIC Mtb H37Ra (Mtb H37Ra): 62.5 µg/mL
- Antimycobacterial Activity MIC Mtb H37Ra (Mtb H37Ra; [6]): 62.5 µg/mL
- Antimycobacterial Activity MIC M. aurum (M. aurum): 125 µg/mL
- Antimycobacterial Activity MIC M. aurum (M. aurum; [6]): 125 µg/mL

Compound: COc1ccc(Cn2c(C)nc3cc(Cl)ccc3c2=O)c(OC)c1 [Compound 15]
- MIC (Mtb H37Rv; [1]): > 100 µg/mL
- MIC (Mtb H37Rv; [7]): > 100 µg/mL
- Antimycobacterial Activity MIC M. smeg. (M. smegmatis): ≥125 µg/mL
- MIC (M. smegmatis; [2]): ≥ 125 µg/mL
- MIC (M. kansasii): > 100 µg/mL
- Antimycobacterial Activity MIC M. avium (M. avium): ≥125 µg/mL
- MIC (M. avium; [3]): ≥ 125 µg/mL
- Antimycobacterial Activity MIC Mtb H37Ra (Mtb H37Ra): ≥125 µg/mL
- MIC (Mtb H37Ra; [8]): ≥ 125 µg/mL
- Antimycobacterial Activity MIC M. aurum (M. aurum): ≥125 µg/mL
- MIC (M. aurum; [5]): ≥ 125 µg/mL

Compound: COc1cccc(/C=N/n2c(C)nc3cc(Cl)ccc3c2=O)c1 [Compound 39]
- MIC (Mtb H37Rv; [1]): > 50 µg/mL
- MIC (M. smegmatis; [2]): ≥ 62.5 µg/mL
- MIC (M. kansasii): > 50 µg/mL
- MIC (M. avium; [3]): ≥ 62.5 µg/mL
- MIC (Mtb H37Ra; [4]): ≥ 62.5 µg/mL
- MIC (M. aurum; [5]): ≥ 62.5 µg/mL

Compound: Cc1nc2cc(Cl)ccc2c(=O)n1/N=C/c1cccc(Cl)c1 [Compound 50]
- MIC (Mtb H37Rv; [1]): > 50 µg/mL
- MIC (M. smegmatis; [2]): ≥ 62.5 µg/mL
- MIC (M. kansasii): > 50 µg/mL
- MIC (M. avium; [3]): ≥ 62.5 µg/mL
- MIC (Mtb H37Ra; [4]): ≥ 62.5 µg/mL
- MIC (M. aurum; [5]): ≥ 62.5 µg/mL

Compound: Cc1nc2ccccc2c(=O)n1Cc1ccc(Cl)cc1Cl [Compound 10]
- Antimycobacterial Activity MIC Mtb H37Rv (Mtb H37Rv; Microplate Alamar Blue assay): >100 µg/mL
- Antimycobacterial Activity MIC M. smeg. (M. smegmatis): ≥250 µg/mL
- Antimycobacterial Activity MIC M. kans. (M. kansasii): >100 µg/mL
- Antimycobacterial Activity MIC M. avium (M. avium): ≥250 µg/mL
- Antimycobacterial Activity MIC Mtb H37Ra (Mtb H37Ra): ≥250 µg/mL
- Antimycobacterial Activity MIC M. aurum (M. aurum): ≥250 µg/mL

Compound: Cc1nc2cc(Cl)ccc2c(=O)n1Cc1cccc(C(=O)O)c1 [Compound 12]
- MIC (Mtb H37Rv; [1]): > 100 µg/mL
- MIC (M. smegmatis; [2]): ≥ 62.5 µg/mL
- MIC (M. kansasii): > 100 µg/mL
- MIC (M. avium; [3]): ≥ 62.5 µg/mL
- MIC (Mtb H37Ra; [4]): ≥ 62.5 µg/mL
- MIC (M. aurum; [5]): ≥ 62.5 µg/mL

Compound: Cc1nc2cc(Cl)ccc2c(=O)n1/N=C/c1ccccn1 [Compound 29]
- MIC (Mtb H37Rv; [1]): > 25 µg/mL
- MIC (M. smegmatis; [2]): ≥ 31.2 µg/mL
- MIC (M. kansasii): > 25 µg/mL
- MIC (M. avium; [3]): ≥ 31.2 µg/mL
- MIC (Mtb H37Ra; [4]): ≥ 31.2 µg/mL
- MIC (M. aurum; [5]): ≥ 31.2 µg/mL

Compound: Cc1nc2cc(Cl)ccc2c(=O)n1/N=C/c1ccccc1F [Compound 42]
- MIC (Mtb H37Rv; [1]): > 25 µg/mL
- MIC (M. smegmatis; [2]): ≥ 31.2 µg/mL
- MIC (M. kansasii): > 25 µg/mL
- MIC (M. avium; [3]): ≥ 31.2 µg/mL
- MIC (Mtb H37Ra; [4]): ≥ 31.2 µg/mL
- MIC (M. aurum; [5]): ≥ 31.2 µg/mL

Compound: Cc1nc2cc(Cl)ccc2c(=O)n1/N=C/c1ccc(N(C)C)cc1 [Compound 45]
- MIC (Mtb H37Rv; [1]): > 25 µg/mL
- MIC (M. smegmatis; [2]): ≥ 15.6 µg/mL
- MIC (M. kansasii): > 25 µg/mL
- MIC (M. avium; [3]): ≥ 15.6 µg/mL
- MIC (Mtb H37Ra; [4]): ≥ 15.6 µg/mL
- MIC (M. aurum; [5]): ≥ 15.6 µg/mL

Compound: Cc1nc2cc(Cl)ccc2c(=O)n1Cc1ccc(C(F)(F)F)cc1 [Compound 22]
- MIC (Mtb H37Rv; [1]): > 100 µg/mL
- MIC (Mtb H37Rv; [7]): > 100 µg/mL
- MIC (M. smegmatis; Mycolicibacterium smegmatis; read-out: Antimycobacterial Activity MIC M. smeg.): ≥ 500 µg/mL
- Antimycobacterial Activity MIC M. smeg. (M. smegmatis; [6]): ≥ 500 µg/mL
- MIC (M. kansasii): 25 µg/mL (≈ 70.9 µM)
- Antimycobacterial Activity MIC M. kans. (M. kansasii; [6]): 25 µg/mL
- MIC (M. avium; Mycobacterium avium; read-out: Antimycobacterial Activity MIC M. avium): ≥ 500 µg/mL
- Antimycobacterial Activity MIC M. avium (M. avium; [6]): ≥ 500 µg/mL
- Antimycobacterial Activity MIC Mtb H37Ra (Mtb H37Ra): 31.25 µg/mL
- MIC (Mtb H37Ra; [8]): 31.2 µg/mL (≈ 88.6 µM)
- MIC (M. aurum; Mycolicibacterium aurum; read-out: Antimycobacterial Activity MIC M. aurum): ≥ 500 µg/mL
- Antimycobacterial Activity MIC M. aurum (M. aurum; [6]): ≥ 500 µg/mL

Compound: COc1ccc(Cn2c(C)nc3ccccc3c2=O)c(OC)c1 [Compound 1]
- Antimycobacterial Activity MIC Mtb H37Rv (Mtb H37Rv; Microplate Alamar Blue assay): >100 µg/mL
- Antimycobacterial Activity MIC M. smeg. (M. smegmatis): ≥500 µg/mL
- Antimycobacterial Activity MIC M. smeg. (M. smegmatis; [6]): ≥ 500 µg/mL
- Antimycobacterial Activity MIC M. kans. (M. kansasii): >100 µg/mL
- Antimycobacterial Activity MIC M. avium (M. avium): ≥500 µg/mL
- Antimycobacterial Activity MIC M. avium (M. avium; [6]): ≥ 500 µg/mL
- Antimycobacterial Activity MIC Mtb H37Ra (Mtb H37Ra): ≥500 µg/mL
- Antimycobacterial Activity MIC Mtb H37Ra (Mtb H37Ra; [6]): ≥ 500 µg/mL
- Antimycobacterial Activity MIC M. aurum (M. aurum): ≥500 µg/mL
- Antimycobacterial Activity MIC M. aurum (M. aurum; [6]): ≥ 500 µg/mL

Compound: Cc1nc2cc(Cl)ccc2c(=O)n1/N=C/c1ccc(O)cc1O [Compound 33]
- MIC (Mtb H37Rv; [1]): > 100 µg/mL
- MIC (M. smegmatis; [2]): ≥ 62.5 µg/mL
- MIC (M. kansasii): > 100 µg/mL
- MIC (M. avium; [3]): ≥ 62.5 µg/mL
- MIC (Mtb H37Ra; [4]): ≥ 62.5 µg/mL
- MIC (M. aurum; [5]): ≥ 62.5 µg/mL

Reference: article PMC12221116, “Novel Quinazolinones Active against Multidrug‐Resistant Mycobacterium Tuberculosis: Synthesis, Antimicrobial Evaluation, and in Silico Exploration of Penicillin‐Binding Protein 1A as a Potential Target” (Chemmedchem, 2025)
